In publication PMC7995547, “ω‐Imidazolyl‐alkyl derivatives as new preclinical drug candidates for treating non‐alcoholic steatohepatitis” (Physiological Reports, 2021):

Tested on: male CD/Crl:CD(SD) rats
Test: Acute toxicity study, single peroral application, 14‐day observation
Format: in vivo
Conditions: for Ataxia / Chromodacryorrhea / Dyspnoea / Inhibition of body weight gain / Mean body weight gain, After 7 d / Mean body weight, After 7 d / Mortality within 6 h / Mortality within 7 h / Mortality within 14 h / Mortality within 24 h / Necropsy findings / Piloerection / Ptosis / Reduced motility / Reduced muscle tone / Mean body weight gain, End / Mean body weight, End / Mean body weight, Start: p.o., males, n = 5; for Mean body weight gain, End / Mean body weight, End: 14‐day observation; for Mean body weight, Start: before administration
Protocol: In total, 90 male CD®/Crl:CD(SD) rats from Charles River Laboratories, Deutschland GmbH, were used after randomization. Five rats were selected for each concentration of the corresponding experimental substance. […] In addition, a control group was formed with five rats receiving only the HPMC gel.
Feeding was stopped approximately 16 h before the start of test substance application, whereas tap water continued to be available ad libitum. Granulated structural wood was used as bedding material in the cages; the material was changed and the cages were cleaned twice a week. […] The rooms were illuminated (approximately 150 lux from a ceiling height of approximately 1.50 m) and darkened for 12 h in turns.
Each animal was kept under observation, so that any behavior deviating from the norm could be systematically recorded. Observations were made before the peroral application of the respective active substance, immediately after, and 5, 15, 30, and 60 min and 3, 6, and 24 h after the start of application. […] We focused on the changes in the skin and fur, the eyes and mucous membranes, respiration, circulation, the autonomous and central nervous systems, somatomotor activity, and behavior patterns. They were also observed for possible tremors, convulsions, salivation, diarrhea, lethargy, sleep, and coma. Mortality checks were performed at least once a day to minimize the loss of animals during the study. The time of death was recorded as accurately as possible. Individual body weights were recorded before the administration of experimental substances and, subsequently, at weekly intervals, until the end of the study and at death. Weight changes were calculated when survival exceeded 1 day.
At the end of the experiments, all surviving animals were sacrificed, dissected, and examined macroscopically. All notable pathological changes were recorded. A microscopic examination of all organs showing obvious lesions was performed on animals that survived for 24 h or longer. Autopsy and macroscopic inspection of prematurely deceased animals were performed as soon as possible after death.

SMILES: CCCCCCCCCCCCn1ccnc1 [I‐an, 1‐imidazolyldodecane]
- Ataxia (10 mg/kg b.w.): None
- Chromodacryorrhea (10 mg/kg b.w.): None
- Dyspnoea (10 mg/kg b.w.): None
- Inhibition of body weight gain (10 mg/kg b.w.): None
- Mean body weight gain, After 7 d (10 mg/kg b.w.): +24.4%
- Mean body weight, After 7 d (10 mg/kg b.w.): 293.2 g
- Mortality within 6 h (10 mg/kg b.w.): 0
- Mortality within 7 h (10 mg/kg b.w.): 0
- Mortality within 14 h (10 mg/kg b.w.): 0
- Mortality within 24 h (10 mg/kg b.w.): 0
- Necropsy findings (10 mg/kg b.w.): None
- Piloerection (10 mg/kg b.w.): None
- Ptosis (10 mg/kg b.w.): None
- Reduced motility (10 mg/kg b.w.): None
- Reduced muscle tone (10 mg/kg b.w.): None
- Mean body weight gain, End (10 mg/kg b.w.): +39.4%
- Mean body weight, End (10 mg/kg b.w.): 328.4 g
- Mean body weight, Start (10 mg/kg b.w.): 235.6 g
- Ataxia (50 mg/kg b.w.): None
- Chromodacryorrhea (50 mg/kg b.w.): None
- Dyspnoea (50 mg/kg b.w.): None
- Inhibition of body weight gain (50 mg/kg b.w.): None
- Mean body weight gain, After 7 d (50 mg/kg b.w.): +26.6%
- Mean body weight, After 7 d (50 mg/kg b.w.): 296.4 g
- Mortality within 6 h (50 mg/kg b.w.): 0
- Mortality within 7 h (50 mg/kg b.w.): 0
- Mortality within 14 h (50 mg/kg b.w.): 0
- Mortality within 24 h (50 mg/kg b.w.): 0
- Necropsy findings (50 mg/kg b.w.): None
- Piloerection (50 mg/kg b.w.): None
- Ptosis (50 mg/kg b.w.): None
- Reduced motility (50 mg/kg b.w.): None
- Reduced muscle tone (50 mg/kg b.w.): None
- Mean body weight gain, End (50 mg/kg b.w.): +40.6%
- Mean body weight, End (50 mg/kg b.w.): 329.2 g
- Mean body weight, Start (50 mg/kg b.w.): 234.2 g
- Ataxia (100 mg/kg b.w.): None
- Chromodacryorrhea (100 mg/kg b.w.): None
- Dyspnoea (100 mg/kg b.w.): None
- Inhibition of body weight gain (100 mg/kg b.w.): None
- Mean body weight gain, After 7 d (100 mg/kg b.w.): +22.0%
- Mean body weight, After 7 d (100 mg/kg b.w.): 283.6 g
- Mortality within 6 h (100 mg/kg b.w.): 0
- Mortality within 7 h (100 mg/kg b.w.): 0
- Mortality within 14 h (100 mg/kg b.w.): 0
- Mortality within 24 h (100 mg/kg b.w.): 0
- Necropsy findings (100 mg/kg b.w.): None
- Piloerection (100 mg/kg b.w.): None
- Ptosis (100 mg/kg b.w.): None
- Reduced motility (100 mg/kg b.w.): None
- Reduced muscle tone (100 mg/kg b.w.): None
- Mean body weight gain, End (100 mg/kg b.w.): +34.2%
- Mean body weight, End (100 mg/kg b.w.): 311.8 g
- Mean body weight, Start (100 mg/kg b.w.): 232.4 g
- Ataxia (250 mg/kg b.w.): None
- Chromodacryorrhea (250 mg/kg b.w.): None
- Dyspnoea (250 mg/kg b.w.): None
- Inhibition of body weight gain (250 mg/kg b.w.): None
- Mean body weight gain, After 7 d (250 mg/kg b.w.): +19.4%
- Mean body weight, After 7 d (250 mg/kg b.w.): 266.2 g
- Mortality within 6 h (250 mg/kg b.w.): 0
- Mortality within 7 h (250 mg/kg b.w.): 0
- Mortality within 14 h (250 mg/kg b.w.): 0
- Mortality within 24 h (250 mg/kg b.w.): 0
- Necropsy findings (250 mg/kg b.w.): None
- Piloerection (250 mg/kg b.w.): None
- Ptosis (250 mg/kg b.w.): None
- Reduced motility (250 mg/kg b.w.): None
- Reduced muscle tone (250 mg/kg b.w.): None
- Mean body weight gain, End (250 mg/kg b.w.): +32.7%
- Mean body weight, End (250 mg/kg b.w.): 296.0 g
- Mean body weight, Start (250 mg/kg b.w.): 223.0 g
- Toxic signs (250 mg/kg bw): None
- Time of premature death (500 mg/kg b.w.): 6 days
- Ataxia (500 mg/kg b.w.): None
- Chromodacryorrhea (500 mg/kg b.w.): None
- Dyspnoea (500 mg/kg b.w.): None
- Inhibition of body weight gain (500 mg/kg b.w.): None
- Mean body weight gain, After 7 d (500 mg/kg b.w.): +21.8%
- Mean body weight, After 7 d (500 mg/kg b.w.): 288.7 g
- Mortality within 6 h (500 mg/kg b.w.): 0
- Mortality within 7 h (500 mg/kg b.w.): 2
- Mortality within 14 h (500 mg/kg b.w.): 2
- Mortality within 24 h (500 mg/kg b.w.): 0
- Necropsy findings (500 mg/kg b.w.): None
- Piloerection (500 mg/kg b.w.): None
- Ptosis (500 mg/kg b.w.): None
- Reduced motility (500 mg/kg b.w.): None
- Reduced muscle tone (500 mg/kg b.w.): None
- Mean body weight gain, End (500 mg/kg b.w.): +38.4%
- Mean body weight, End (500 mg/kg b.w.): 328.0 g
- Mean body weight, Start (500 mg/kg b.w.): 237.0 g
- Toxic signs (500 mg/kg bw): Mortality
- Time of premature death (1000 mg/kg b.w.): 5 days
- Ataxia (1000 mg/kg b.w.): None
- Chromodacryorrhea (1000 mg/kg b.w.): None
- Dyspnoea (1000 mg/kg b.w.): None
- Inhibition of body weight gain (1000 mg/kg b.w.): None
- Mean body weight gain, After 7 d (1000 mg/kg b.w.): +15.0%
- Mean body weight, After 7 d (1000 mg/kg b.w.): 270.3 g
- Mortality within 6 h (1000 mg/kg b.w.): 0
- Mortality within 7 h (1000 mg/kg b.w.): 1
- Mortality within 14 h (1000 mg/kg b.w.): 1
- Mortality within 24 h (1000 mg/kg b.w.): 0
- Necropsy findings (1000 mg/kg b.w.): None
- Piloerection (1000 mg/kg b.w.): None
- Ptosis (1000 mg/kg b.w.): None
- Reduced motility (1000 mg/kg b.w.): None
- Reduced muscle tone (1000 mg/kg b.w.): None
- Mean body weight gain, End (1000 mg/kg b.w.): +36.2%
- Mean body weight, End (1000 mg/kg b.w.): 320.0 g
- Mean body weight, Start (1000 mg/kg b.w.): 235.0 g
- Toxic signs (1000 mg/kg bw): Mortality
- Premature deaths in the acute toxicity study (all dose groups, 30 rats per substance): three
- Macroscopic necropsy findings (all doses): None
- Lowest lethal dose (rats, single p.o. dose): 500 mg/kg bw
- No Observed Adverse Effect Level (rats, single p.o. dose): 250 mg/kg bw
- LD50(14 d) (rats, single p.o. dose, 14 days): >1000 mg/kg bw
